Measured values from paper PMC11831560, “Development of the Pyrido[2,3-d]pyrimidin-7(8H)-one Scaffold toward Potent and Selective NUAK1 Inhibitors” (ACS Medicinal Chemistry Letters, 2025).

Tests used:
Assay in all cases: Kinase panel radiometric filter binding (33P-ATP)
Format in all cases: biochemical
Design in all cases: dose or concentration left out as unconfirmed
PIM3 = PIM3 (Homo sapiens, UniProt Q86V86)
Experimental: (§1) Table S4: AMPKA kinase activity data (ADP-Glo assay)
(§2) Compound pIC50 (Fold selectivity
(§3) Table S5. Kinase selectivity screening for 9 and 24 at 1 µM against a general kinase panel of 140 targets
(§4) in radiometric filter binding assay using 33P-γ−ATP at the MRC PPU International Centre for Kinase
(§5) Profiling, University of Dundee. pIC50 values were determined for compounds with <20% activity
(§6) Kinase activity s.d. pIC50 activity s.d. pIC50

TESK1 = TESK1 (Homo sapiens, UniProt Q15569)
Experimental: as §1, §2, §3, §4, §5, §6

CLK2 = CLK2 (Homo sapiens, UniProt P49760)
Experimental: as §1, §2, §3, §4, §5, §6

DAPK1 = DAPK1 (Homo sapiens, UniProt P53355)
Experimental: as §1, §2, §3, §4, §5, §6

BRSK1 = BRSK1 (Homo sapiens, UniProt Q8TDC3)
Experimental: as §1, §2, §3, §4, §5, §6

TAO1 = TAO1 (Homo sapiens, UniProt Q7L7X3)
Experimental: as §1, §2, §3, §4, §5, §6

MEKK1 = MEKK1 (Homo sapiens, UniProt Q13233)
Experimental: as §1, §2, §3, §4, §5, §6

HIPK1 = HIPK1 (Homo sapiens, UniProt Q86Z02)
Experimental: as §1, §2, §3, §4, §5, §6

Lck = Lck (Homo sapiens, UniProt P06239)
Experimental: as §1, §2, §3, §4, §5, §6

MST2 = MST2 (Homo sapiens, UniProt Q13188)
Experimental: as §1, §2, §3, §4, §5, §6

PKCz = PKCz (Homo sapiens, UniProt Q05513)
Experimental: as §1, §2, §3, §4, §5, §6

ROCK 2 = ROCK 2 (Homo sapiens, UniProt O75116)
Experimental: as §1, §2, §3, §4, §5, §6

CK2 = CK2 (Homo sapiens, UniProt P68400)
Experimental: as §1, §2, §3, §4, §5, §6

MKK1 = MKK1 (Homo sapiens, UniProt Q02750)
Experimental: as §1, §2, §3, §4, §5, §6

ASK1 = ASK1 (Homo sapiens, UniProt Q99683)
Experimental: as §1, §2, §3, §4, §5, §6

BRSK2 = BRSK2 (Homo sapiens, UniProt Q8IWQ3)
Experimental: as §1, §2, §3, §4, §5, §6

EPH-A4 = EPH-A4 (Homo sapiens, UniProt P54764)
Experimental: as §1, §2, §3, §4, §5, §6

MLK1 = MLK1 (Homo sapiens, UniProt P80192)
Experimental: as §1, §2, §3, §4, §5, §6

IRR = IRR (Homo sapiens, UniProt P14616)
Experimental: as §1, §2, §3, §4, §5, §6

PKBa = PKBa (Homo sapiens, UniProt P31749)
Experimental: as §1, §2, §3, §4, §5, §6

CK1δ = CK1δ (Homo sapiens, UniProt P48730)
Experimental: as §1, §2, §3, §4, §5, §6

ABL = ABL (Homo sapiens, UniProt P00519)
Experimental: as §1, §2, §3, §4, §5, §6

EF2K = EF2K (Homo sapiens, UniProt O00418)
Experimental: as §1, §2, §3, §4, §5, §6

HER4 = HER4 (Homo sapiens, UniProt Q15303)
Experimental: as §1, §2, §3, §4, §5, §6

NEK6 = NEK6 (Homo sapiens, UniProt Q9HC98)
Experimental: as §1, §2, §3, §4, §5, §6

MPSK1 = MPSK1 (Homo sapiens, UniProt O75716)
Experimental: as §1, §2, §3, §4, §5, §6

ZAP70 = ZAP70 (Homo sapiens, UniProt P43403)
Experimental: as §1, §2, §3, §4, §5, §6

CK1γ2 = CK1γ2 (Homo sapiens, UniProt P78368)
Experimental: as §1, §2, §3, §4, §5, §6

EPH-A2 = EPH-A2 (Homo sapiens, UniProt P29317)
Experimental: as §1, §2, §3, §4, §5, §6

p38d MAPK = p38d MAPK (Homo sapiens, UniProt O15264)
Experimental: as §1, §2, §3, §4, §5, §6

MKK6 = MKK6 (Homo sapiens, UniProt P52564)
Experimental: as §1, §2, §3, §4, §5, §6

Src = Src (Homo sapiens, UniProt P12931)
Experimental: as §1, §2, §3, §4, §5, §6

MKK2 = MKK2 (Homo sapiens, UniProt P36507)
Experimental: as §1, §2, §3, §4, §5, §6

PAK5 = PAK5 (Homo sapiens, UniProt Q9P286)
Experimental: as §1, §2, §3, §4, §5, §6

TTK = TTK (Homo sapiens, UniProt P33981)
Experimental: as §1, §2, §3, §4, §5, §6

Lck, sequence (P06239 whole entry): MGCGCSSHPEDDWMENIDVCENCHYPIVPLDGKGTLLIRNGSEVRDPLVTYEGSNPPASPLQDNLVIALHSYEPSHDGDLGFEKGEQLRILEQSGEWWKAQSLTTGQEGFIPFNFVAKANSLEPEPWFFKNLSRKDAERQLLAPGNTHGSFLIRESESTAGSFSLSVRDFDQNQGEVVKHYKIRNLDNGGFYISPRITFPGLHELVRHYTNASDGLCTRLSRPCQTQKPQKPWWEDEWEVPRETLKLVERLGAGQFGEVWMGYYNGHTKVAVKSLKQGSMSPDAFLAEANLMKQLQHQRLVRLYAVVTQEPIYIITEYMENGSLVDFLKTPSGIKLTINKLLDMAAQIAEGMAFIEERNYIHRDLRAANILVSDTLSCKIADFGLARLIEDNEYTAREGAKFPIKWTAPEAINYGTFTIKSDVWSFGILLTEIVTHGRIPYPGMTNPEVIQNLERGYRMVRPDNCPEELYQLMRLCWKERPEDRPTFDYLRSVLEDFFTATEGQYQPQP
MLK1, sequence (P80192 whole entry): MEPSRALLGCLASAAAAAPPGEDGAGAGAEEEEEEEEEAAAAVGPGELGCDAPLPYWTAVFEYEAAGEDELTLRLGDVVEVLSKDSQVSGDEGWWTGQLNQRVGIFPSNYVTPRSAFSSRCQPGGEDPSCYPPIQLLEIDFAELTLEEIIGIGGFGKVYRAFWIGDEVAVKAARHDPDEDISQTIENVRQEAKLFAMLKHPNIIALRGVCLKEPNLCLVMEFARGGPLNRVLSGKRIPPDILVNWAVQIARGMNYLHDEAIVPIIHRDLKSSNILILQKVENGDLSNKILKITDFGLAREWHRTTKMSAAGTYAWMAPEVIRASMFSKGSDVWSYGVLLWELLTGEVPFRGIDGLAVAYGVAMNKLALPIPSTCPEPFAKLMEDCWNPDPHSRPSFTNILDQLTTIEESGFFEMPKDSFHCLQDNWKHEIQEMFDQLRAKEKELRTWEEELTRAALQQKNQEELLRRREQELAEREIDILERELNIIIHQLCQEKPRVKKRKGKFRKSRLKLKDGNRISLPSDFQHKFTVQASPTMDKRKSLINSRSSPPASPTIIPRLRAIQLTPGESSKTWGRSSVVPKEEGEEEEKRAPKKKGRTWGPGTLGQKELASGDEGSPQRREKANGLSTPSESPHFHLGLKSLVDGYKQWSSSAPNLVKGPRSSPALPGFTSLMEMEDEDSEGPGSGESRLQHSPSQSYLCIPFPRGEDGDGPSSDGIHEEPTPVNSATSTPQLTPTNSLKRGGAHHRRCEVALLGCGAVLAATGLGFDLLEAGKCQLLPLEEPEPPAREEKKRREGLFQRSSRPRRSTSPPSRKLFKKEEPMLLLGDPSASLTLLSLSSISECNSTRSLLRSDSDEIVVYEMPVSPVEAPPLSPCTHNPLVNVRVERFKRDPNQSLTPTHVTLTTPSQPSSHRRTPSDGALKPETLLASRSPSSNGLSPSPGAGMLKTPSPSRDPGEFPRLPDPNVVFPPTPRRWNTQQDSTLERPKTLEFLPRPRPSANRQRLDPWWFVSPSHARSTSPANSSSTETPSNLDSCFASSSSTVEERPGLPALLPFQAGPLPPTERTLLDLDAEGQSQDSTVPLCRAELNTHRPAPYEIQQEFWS
BRSK1, sequence (Q8TDC3 whole entry): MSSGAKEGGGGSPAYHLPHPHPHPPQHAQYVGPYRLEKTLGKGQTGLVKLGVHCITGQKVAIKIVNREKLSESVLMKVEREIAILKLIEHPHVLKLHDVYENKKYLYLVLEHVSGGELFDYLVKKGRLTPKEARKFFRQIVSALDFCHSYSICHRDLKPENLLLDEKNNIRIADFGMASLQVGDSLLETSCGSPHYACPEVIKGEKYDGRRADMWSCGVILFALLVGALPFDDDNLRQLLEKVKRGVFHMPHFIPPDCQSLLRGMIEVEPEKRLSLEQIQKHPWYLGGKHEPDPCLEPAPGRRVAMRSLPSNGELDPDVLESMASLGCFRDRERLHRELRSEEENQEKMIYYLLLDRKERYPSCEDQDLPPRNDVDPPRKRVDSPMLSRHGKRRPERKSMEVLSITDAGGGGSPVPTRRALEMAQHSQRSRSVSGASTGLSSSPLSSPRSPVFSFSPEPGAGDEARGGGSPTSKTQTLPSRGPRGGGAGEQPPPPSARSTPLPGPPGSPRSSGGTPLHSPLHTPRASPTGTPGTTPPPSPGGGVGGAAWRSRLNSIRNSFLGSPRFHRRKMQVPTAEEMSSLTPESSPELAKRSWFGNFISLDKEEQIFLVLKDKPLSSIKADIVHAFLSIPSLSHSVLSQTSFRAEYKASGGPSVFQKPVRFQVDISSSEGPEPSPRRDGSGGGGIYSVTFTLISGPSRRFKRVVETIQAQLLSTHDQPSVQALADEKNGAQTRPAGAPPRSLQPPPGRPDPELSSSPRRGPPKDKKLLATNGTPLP
IRR, sequence (P14616 27-1297): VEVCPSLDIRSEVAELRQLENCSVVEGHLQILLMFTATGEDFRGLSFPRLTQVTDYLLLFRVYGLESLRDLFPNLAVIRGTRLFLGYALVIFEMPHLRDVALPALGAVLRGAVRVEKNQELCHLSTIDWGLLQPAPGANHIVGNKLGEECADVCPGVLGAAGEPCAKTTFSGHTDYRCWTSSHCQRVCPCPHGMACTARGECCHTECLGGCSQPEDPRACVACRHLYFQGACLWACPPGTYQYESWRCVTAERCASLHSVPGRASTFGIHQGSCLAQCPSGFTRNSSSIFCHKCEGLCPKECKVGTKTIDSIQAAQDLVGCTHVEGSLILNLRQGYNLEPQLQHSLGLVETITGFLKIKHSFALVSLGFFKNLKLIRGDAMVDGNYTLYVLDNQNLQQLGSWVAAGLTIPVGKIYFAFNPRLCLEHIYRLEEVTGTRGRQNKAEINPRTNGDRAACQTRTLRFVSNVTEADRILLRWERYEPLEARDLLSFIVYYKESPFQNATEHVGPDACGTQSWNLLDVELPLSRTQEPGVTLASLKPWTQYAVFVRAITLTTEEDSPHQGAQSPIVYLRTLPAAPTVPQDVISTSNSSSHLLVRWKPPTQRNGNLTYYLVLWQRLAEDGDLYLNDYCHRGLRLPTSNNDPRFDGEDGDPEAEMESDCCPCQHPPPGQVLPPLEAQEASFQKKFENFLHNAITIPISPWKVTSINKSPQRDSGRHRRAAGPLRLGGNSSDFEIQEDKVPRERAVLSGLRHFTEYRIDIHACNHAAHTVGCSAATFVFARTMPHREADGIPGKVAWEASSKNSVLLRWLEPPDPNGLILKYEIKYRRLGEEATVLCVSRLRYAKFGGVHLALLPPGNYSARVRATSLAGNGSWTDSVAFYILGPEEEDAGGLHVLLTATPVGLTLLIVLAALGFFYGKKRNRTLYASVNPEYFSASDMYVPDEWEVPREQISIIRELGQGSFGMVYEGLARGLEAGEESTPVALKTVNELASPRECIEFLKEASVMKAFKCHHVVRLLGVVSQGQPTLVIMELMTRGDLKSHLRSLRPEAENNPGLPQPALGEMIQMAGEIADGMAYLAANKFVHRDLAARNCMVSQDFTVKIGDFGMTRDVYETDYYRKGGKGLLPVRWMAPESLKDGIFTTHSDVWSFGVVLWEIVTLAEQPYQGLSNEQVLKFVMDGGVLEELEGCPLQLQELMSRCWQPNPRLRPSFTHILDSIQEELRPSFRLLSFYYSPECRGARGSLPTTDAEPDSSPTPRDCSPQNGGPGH
MST2, sequence (Q13188 whole entry): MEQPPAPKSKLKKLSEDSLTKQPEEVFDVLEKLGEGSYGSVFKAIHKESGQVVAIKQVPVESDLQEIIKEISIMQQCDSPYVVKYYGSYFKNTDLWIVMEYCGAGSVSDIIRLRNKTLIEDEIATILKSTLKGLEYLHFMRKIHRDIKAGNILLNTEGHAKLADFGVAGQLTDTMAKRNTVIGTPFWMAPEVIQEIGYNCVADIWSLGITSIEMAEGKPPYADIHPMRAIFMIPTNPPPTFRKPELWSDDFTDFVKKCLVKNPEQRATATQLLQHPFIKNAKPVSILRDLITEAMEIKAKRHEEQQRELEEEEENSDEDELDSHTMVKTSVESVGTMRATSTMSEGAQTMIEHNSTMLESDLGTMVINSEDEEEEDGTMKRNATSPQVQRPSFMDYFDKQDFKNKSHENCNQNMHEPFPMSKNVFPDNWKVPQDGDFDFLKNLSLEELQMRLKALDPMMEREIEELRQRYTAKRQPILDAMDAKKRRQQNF
MKK6, sequence (P52564 whole entry): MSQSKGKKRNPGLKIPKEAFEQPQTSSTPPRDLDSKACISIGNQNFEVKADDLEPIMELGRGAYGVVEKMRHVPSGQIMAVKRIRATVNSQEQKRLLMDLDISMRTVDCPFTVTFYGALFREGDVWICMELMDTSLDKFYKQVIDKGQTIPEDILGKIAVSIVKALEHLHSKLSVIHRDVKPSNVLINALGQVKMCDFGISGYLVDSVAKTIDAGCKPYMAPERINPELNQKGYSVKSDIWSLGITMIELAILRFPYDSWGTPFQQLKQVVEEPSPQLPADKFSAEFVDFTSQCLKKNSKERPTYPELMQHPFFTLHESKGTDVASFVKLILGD
CK2, sequence (P68400 whole entry): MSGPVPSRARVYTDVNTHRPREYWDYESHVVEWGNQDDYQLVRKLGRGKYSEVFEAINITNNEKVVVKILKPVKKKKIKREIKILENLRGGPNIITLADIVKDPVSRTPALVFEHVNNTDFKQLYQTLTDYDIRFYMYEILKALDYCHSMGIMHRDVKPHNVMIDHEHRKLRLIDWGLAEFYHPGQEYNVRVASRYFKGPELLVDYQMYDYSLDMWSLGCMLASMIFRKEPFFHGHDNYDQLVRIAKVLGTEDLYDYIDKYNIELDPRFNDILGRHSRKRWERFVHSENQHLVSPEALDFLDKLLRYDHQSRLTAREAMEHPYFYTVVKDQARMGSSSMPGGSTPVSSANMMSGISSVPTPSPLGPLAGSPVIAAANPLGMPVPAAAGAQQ

Cc1cc(=O)n(C2CCCC2)c2nc(Nc3ccc(N4CC5CC(C4)N5C)cc3)ncc12 [Compound 9]
% activity remaining (PIM3): 80%
% activity remaining (TESK1): 96%
% activity remaining (CLK2): 23%
% activity remaining (DAPK1): 60%
% activity remaining (BRSK1): 81%
% activity remaining (TAO1): 91%
% activity remaining (MEKK1): 85%
% activity remaining (HIPK1): 88%
% activity remaining (Lck): 64%
% activity remaining (MST2): 62%
% activity remaining (PKCz): 110%
% activity remaining (ROCK 2): 56%
% activity remaining (CK2): 108%
% activity remaining (MKK1): 108%
% activity remaining (ASK1): 97%
% activity remaining (BRSK2): 90%
% activity remaining (EPH-A4): 90%
% activity remaining (MLK1): 21%
% activity remaining (IRR): 70%
% activity remaining (PKBa): 103%
% activity remaining (CK1δ): 66%
% activity remaining (ABL): 41%
% activity remaining (EF2K): 72%
% activity remaining (HER4): 118%
% activity remaining (NEK6): 105%
% activity remaining (MPSK1): 114%
% activity remaining (ZAP70): 94%
% activity remaining (CK1γ2): 34%
% activity remaining (EPH-A2): 77%
% activity remaining (p38d MAPK): 94%
% activity remaining (MKK6): 84%
% activity remaining (Src): 53%
% activity remaining (MKK2): 94%
% activity remaining (PAK5): 64%
% activity remaining (TTK): 54%

CN1C2CC1CN(c1ccc(Nc3ncc4ccn(CC5CCOCC5)c4n3)cc1)C2 [Compound 24]
% activity remaining (PIM3): 56%
% activity remaining (TESK1): 94%
% activity remaining (CLK2): 90%
% activity remaining (DAPK1): 125%
% activity remaining (BRSK1): 75%
% activity remaining (TAO1): 97%
% activity remaining (MEKK1): 63%
% activity remaining (HIPK1): 82%
% activity remaining (Lck): 67%
% activity remaining (MST2): 91%
% activity remaining (PKCz): 118%
% activity remaining (ROCK 2): 78%
% activity remaining (CK2): 96%
% activity remaining (MKK1): 71%
% activity remaining (ASK1): 99%
% activity remaining (BRSK2): 75%
% activity remaining (EPH-A4): 91%
% activity remaining (MLK1): 33%
% activity remaining (IRR): 94%
% activity remaining (PKBa): 110%
% activity remaining (CK1δ): 93%
% activity remaining (ABL): 56%
% activity remaining (EF2K): 102%
% activity remaining (HER4): 74%
% activity remaining (NEK6): 98%
% activity remaining (MPSK1): 76%
% activity remaining (ZAP70): 95%
% activity remaining (CK1γ2): 107%
% activity remaining (EPH-A2): 76%
% activity remaining (p38d MAPK): 110%
% activity remaining (MKK6): 88%
% activity remaining (Src): 84%
% activity remaining (MKK2): 91%
% activity remaining (PAK5): 99%
% activity remaining (TTK): 99%
